Experimental data from ChEMBL document CHEMBL5252625, “Development of sulfonium tethered peptides conjugated with HDAC inhibitor to improve selective toxicity for cancer cells” (Bioorg Med Chem, 2023).
pIC50: −log10 of the molar value. Calls of active or inactive are those of the source. The rule behind the calls is not given here.

Key:
[1] = test system: Huh-7; assay: Induction of apoptosis in human Huh-7 cells assessed as early apoptotic cells at 20 uM incubated for 24 hrs by FITC Annexin V/propidium iodide staining based flow cytometry analysis (reference value: 1.85%); assay type: functional
[2] = test system: Huh-7; assay: Induction of apoptosis in human Huh-7 cells assessed as viable cells at 20 uM incubated for 24 hrs by FITC Annexin V/propidium iodide staining based flow cytometry analysis (reference value: 92.6%); assay type: functional; settings: read-out: Activity
[3] = test system: HT-29; assay: Antiproliferative activity against human HT-29 cells incubated for 48 hrs by CCK8 method; assay type: functional, cell-based; settings: HT-29, 48 h
[4] = test system: Huh-7; assay: Anticancer activity in human Huh-7 cells assessed as change in BCL2L11gene expression by KEGG analysis; assay type: functional, cell-based
[5] = test system: Huh-7; assay: Induction of cell cycle arrest in human Huh-7 cells assessed as accumulation of cells at G1 phase at 20 uM incubated for 24 hrs by FACscan flow cytometer analysis (reference value: 39.68%); assay type: functional
[6] = test system: Huh-7; assay: Induction of cell cycle arrest in human Huh-7 cells assessed as accumulation of cells at sub G1 phase at 20 uM incubated for 24 hrs by FACscan flow cytometer analysis relative to control; assay type: functional
[7] = test system: Huh-7; assay: Anticancer activity in human Huh-7 cells assessed as change in JAK2 gene expression by KEGG analysis; assay type: functional, cell-based
[8] = test system: Huh-7; assay: Anticancer activity in human Huh-7 cells assessed as change in BMP4 gene expression by KEGG analysis; assay type: functional, cell-based
[9] = test system: Huh-7; assay: Antiproliferative activity against human Huh-7 cells incubated for 48 hrs by CCK8 method; assay type: functional, cell-based; settings: Huh-7, 48 h
[10] = target: Histone deacetylase; assay: Inhibition of HDAC in human HeLa cell extracts using Boc-Lys(Ac)-AM as substrate by fluorescence based analysis
[11] = test system: Huh-7; assay: Induction of cell cycle arrest in human Huh-7 cells assessed as accumulation of cells at G2 phase at 20 uM incubated for 24 hrs by FACscan flow cytometer analysis (reference value: 25.74%); assay type: functional
[12] = target: T1, Histone deacetylase (Homo sapiens) (UniProt Q13547+O15379+Q9UBN7+Q92769+Q9UQL6+Q8WUI4+Q9BY41+Q96DB2+P56524+Q9UKV0+Q969S8); assay: Inhibition of HDAC in human HepG2 cells assessed as increase in histone H3 acetylation at 20 to 40 uM incubated for 24 hrs by Western blot analysis; assay type: cell-based; settings: dose 20-40 µM
[13] = test system: Huh-7; assay: Induction of apoptosis in human Huh-7 cells assessed as necrotic cells at 20 uM incubated for 24 hrs by FITC Annexin V/propidium iodide staining based flow cytometry analysis (reference value: 0.401%); assay type: functional
[14] = test system: Huh-7; assay: Anticancer activity in human Huh-7 cells assessed as change in TP53 gene expression by KEGG analysis; assay type: functional, cell-based
[15] = test system: HepG2; assay: Antiproliferative activity against human HepG2 cells incubated for 48 hrs by CCK8 method; assay type: functional, cell-based; settings: HepG2, 48 h
[16] = test system: Huh-7; assay: Anticancer activity in human Huh-7 cells assessed as change in WNT6 gene expression by KEGG analysis; assay type: functional, cell-based
[17] = test system: Huh-7; assay: Anticancer activity in human Huh-7 cells assessed as change in BMP2 gene expression by KEGG analysis; assay type: functional, cell-based
[18] = Stability in mouse serum measured upto 24 hrs by LC/MS analysis; assay type: ADME, cell-free
[19] = target: T1, Histone deacetylase (Homo sapiens); assay: Inhibition of HDAC in human Huh-7 cells assessed as increase in histone H3 acetylation at 20 to 40 uM incubated for 24 hrs by Western blot analysis; assay type: cell-based; settings: dose 20-40 µM
[20] = test system: Huh-7; assay: Induction of apoptosis in human Huh-7 cells assessed as late apoptotic cells at 20 uM incubated for 24 hrs by FITC Annexin V/propidium iodide staining based flow cytometry analysis (reference value: 5.19%); assay type: functional
[21] = test system: Huh-7; assay: Induction of cell cycle arrest in human Huh-7 cells assessed as accumulation of cells at S phase at 20 uM incubated for 24 hrs by FACscan flow cytometer analysis (reference value: 41.7%); assay type: functional

Question: Which results are given for `CC(=O)N[C@@H](CCCNC(=N)N)C(=O)N[C@@H](CC(C)C)C(=O)N[C@@H](CC(C)C)C(=O)N[C@@H](CCCNC(=N)N)C(=O)N[C@@H](CC(C)C)C(=O)N[C@H]1CC[S+](C)Cc2cccc(c2)C[S+](C)CC[C@@H](C(=O)N[C@@H](CC(C)C)C(=O)N[C@@H](CC(C)C)C(=O)N[C@@H](CCCNC(=N)N)C(=O)N[C@@H](CC(C)C)C(=O)NCCCCCC(=O)NO)NC(=O)[C@H](CCCNC(=N)N)NC(=O)[C@H](CC(C)C)NC(=O)[C@H](CCCNC(=N)N)NC1=O` (some centres not stated)?
Answer: Activity [1]: 4.97%; viability at 20 µM [2]: 73%; pIC50 [3]: 4.26; Activity [4]: Active; Activity [5]: 51.86%; Activity [6]: 2.98%; Activity [7]: Active; Activity [8]: Active; pIC50 [9]: 4.36; IC50 [10]: 0.31 µM; Activity [11]: 17.34%; inhibition [12]: Active; Activity [13]: 3.89%; Activity [14]: Active; pIC50 [15]: 4.28; Activity [16]: Active; Activity [17]: Active; Stability [18]: Stable; inhibition [19]: Active; Activity [20]: 18.2%; Activity [21]: 33.25%

Question: With `CC(=O)N[C@@H](CCCNC(=N)N)C(=O)N[C@@H](CC(C)C)C(=O)N[C@@H](CC(C)C)C(=O)N[C@@H](CCCNC(=N)N)C(=O)N[C@@H](CC(C)C)C(=O)N[C@H]1CC[S+](C)Cc2cccc(c2)C[S+](C)CC[C@@H](C(=O)N[C@@H](CC(C)C)C(=O)N[C@@H](CC(C)C)C(=O)N[C@@H](CCCNC(=N)N)C(=O)N[C@@H](CC(C)C)C(=O)O)NC(=O)[C@H](CCCNC(=N)N)NC(=O)[C@H](CC(C)C)NC(=O)[C@H](CCCNC(=N)N)NC1=O` (some centres not stated) as the molecule, how does the IC50 [10] read?
Answer: > 100 µM
